Results published in article PMC10185643, “Improved LC–MS identification of short homologous peptides using sequence-specific retention time predictors” (Analytical and Bioanalytical Chemistry, 2023).

Assay: Reversed-phase LC-MS experimental retention time of short peptides
Format: physicochemical
Settings: for RT: experimental retention time, reversed-phase LC-MS, Table S1, column Source gives the peptide's origin (1-4 = synthesis route of homologous peptides, enzyme)
Procedure: All analyses were performed on an UltiMate 3000 RS chromatography system equipped with a UV detector, connected to a Q-Exactive Plus Hybrid Quadrupole-Orbitrap mass spectrometer (Thermo Fischer Scientific, Waltham, MA, USA). An Xselect Peptide CSH C18 130 Å column (particle size 2.5 µm, dimensions 150 × 2.1 mm, Waters, Etten-Leur, the Netherlands) with associated VanGuard pre-column was used for the separations. The analytes were eluted at a flow rate of 0.35 ml/min using a linear gradient of water (solvent A) and acetonitrile (solvent B) both fortified with 0.1% formic acid. […] The column temperature was maintained at 40 °C and the auto-sampler at 4 °C. The injection volume was 5 µL.
The sheath gas was set to 48 arbitrary units, the auxiliary gas was set to 11 arbitrary units, and the spray voltage was set to 3.7 kV. The mass spectrometer was set to operate in full-scan MS data-dependent MS^2 (ddMS^2) mode. Full-scan spectra were acquired at a resolution of 70.000 in the m/z range 80–1200 using a maximum ion injection time of 100 ms, unless stated otherwise. […] The maximum injection time was set to 150 ms, and a normalized stepped collision energy was applied of 15, 30 and 45 arbitrary units.

Substance | RT | RT (retention time) (Table S1, Source: enzyme, experimental reversed-phase LC-MS retention time, decimal comma)
KCEVF | 4,52 | –
CPFD | – | 13,62
CLVR | 4,57 | –
